Laboratory results taken from US20230320984A1, “TOFACITINIB-CONTAINING ANHYDROUS ELASTOMER-BASED GEL FORMULATIONS” (Vyne Therapeutics Inc., priority 2022, published 2023).
Like-named read-outs stand apart in the source and are kept apart here.

Legend:
[1] = Visual solubility evaluation of Fingolimod free base; type: physicochemical; details: for solubility: organic solvent or mixture, thermodynamic from solid, visual, RT
Description: A visual solubility evaluation of Fingolimod free base was performed.

[2] = Chemical stability of formulations (Method H); type: physicochemical; details: gel with Tofacitinib Citrate 1.0% and Fingolimod HCl 0.01% (Table 38)
Description: Where another active agent such as fingolimod is present in the formulations the samples are analyzed for that active agent and its degradation products by HPLC. […] The gradient elution is employed.

[3] = system: Reconstructed Human Epidermis (RHE) exposed to Th2 cytokines IL-4, IL-13, IL-25; experiment: Reconstructed Human Epidermis Th2 model for AD efficacy (Method S); type: cell-based; details: 48 h
Description: Reconstructed Human Epidermis (RHE) tissues are produced and grown by StratiCELL. To generate the morphological and functional aspects of AD, RHE samples are exposed to Th2 cytokines IL-4, IL-13, IL-25. Th-2 cytokines are applied for 48 h in the culture medium of epidermis. Test formulations are applied simultaneously with the cytokines on the stratum corneum of the epidermis during the same 48 h. The tissue morphology is assessed by histology and hemalum/eosin (H/E) staining—quantification of a fluorescent dye (biotin) diffusion through the epidermis in order to evaluate the barrier function.

[4] = human, in vivo
Description: Values below the limit of concentration are omitted from determination of geometric mean and geometric % CV.
Samples designated for analysis of fingolimod and fingolimod phosphate are collected and processed for shipment to bioanalytical laboratories. Frozen samples are thawed at room temperature and homogenized by vortexing. 10 μL of ISTD working solution (WS ISTD2 50 ng/mL in methanol/water, 50/50, V/V) is addeded to Eppendorf tubes each containing 200 sample (exception blank samples for which 10 μL of methanol/water, 50/50, V/V is added). Samples are vortexed for 5 sec and 800 μL of acetonitrile is added to each sample and vortexed for additional 10 sec. Next samples are centrifuged for 10 min at 14000 rpm at 5° C. and 900 μL is transferred to hemolyse tube. The samples are evaporated at approximately 40° C. […]
Whole blood is analyzed for concentration of fingolimod and fingolimod phosphate using a validated analytical procedure for the simultaneous quantitation of both analytes. […] After, the analyte is separated on a Kinetex Biphenyl column (50×3.0 mm, 2.6 μm) and analyzed using electrospray ionization (ESI) tandem mass spectrometry (MS/MS) in the multiple reaction monitoring mode (MRM). […]

[5] = Human equivalent dose, safety factor and predicted exposure from the minipig NOAEL
[6] = system: Human skin from cosmetic reduction surgery; experiment: Skin penetration (IVPT), vertical diffusion cell (Method A); type: in vitro ADME
Description: The skin is dosed with approx. 6 mg of formulation to achieve a dose of ˜ 10 mg/cm2. Receptor solution is collected at pre-determined intervals over the course of 24 hours and analyzed using a liquid chromatography with tandem mass spectrometry (LC-MS/MS) analytical method.
Following 24 hours, the residual formulation is removed from the surface of the skin. The skin surface is tape-stripped up to five times to remove residual formulation and the top of the skin surface layers (Stratum Corneum). The epidermis is then heat-separated from the dermis. The active agent is extracted from the skin layers and the amount of active agent delivered to the epidermis and dermis is then determined by LC-MS/MS.

[7] = Toxicokinetics / pK in minipigs (Method T); details: day 1; tofacitinib 0.6% fingolimod 0.005% gel group
Description: (§1) The animals are not fasted prior to blood collection, with the exception of the intervals that coincide with fasting for clinical pathology collections.
(§2) If necessary, the samples are frozen on dry ice prior to being placed in the freezer. […] Samples are stored at the bioanalytical laboratories in a freezer set to maintain −80±10° C. until analysis.
(§3) Samples designated for analysis of fingolimod and fingolimod phosphate are mixed gently, lysed with an equal volume of deionized water, vortexed for approximately 1 minute, divided into two approximately equal aliquots, transferred to uniquely labeled polypropylene tubes and frozen in a freezer set to maintain −70° C. If necessary, the samples are frozen on dry ice prior to being placed in the freezer. The samples for fingolimod analysis are shipped with a temperature monitoring device to bioanalytical laboratories. Samples are stored at the bioanalytical laboratories in a freezer set to maintain −75±15° C. until analysis.
(§4) Whole blood is analyzed for concentration of fingolimod and fingolimod phosphate using a validated analytical procedure for the simultaneous quantitation of both analytes.
(§5) TK samples collected on Days 49 and 56 from recovery animals in Groups 1, 2, 3, 5, and 6 are also analyzed. […]

[8] = cited from earlier work
[9] = minipig, in vivo
Description: as §1, §2, §3, §4, §5

[10] = system: S1P receptors (S1P1 and S1P3-5); details: cited from earlier work
[11] = estimated from Table 43a, epidermis assumed 80 μm, skin 500 μm, density 1.0 g/cm^3
[12] = gel with Fingolimod HCl […] (Table 42), Mean (n = 5)
[13] = gel with Tofacitinib Citrate 1.0% and Fingolimod HCl 0.01% (Table 43a), Mean (n = 5)

CCCCCCCCc1ccc(CCC(N)(CO)CO)cc1 [fingolimod, 2-amino-2-[2-(4-octylphenyl)ethyl]propane-1,3-diol]
visual solubility at RT ([1]; alcohols): very good solubility
visual solubility at RT ([1]; most of organic solvents tested): good solubility
solubility ([1]; Diisopropyloxide): < 1.1 mg/mL
solubility ([1]; Ethanol): > 20 mg/mL
solubility ([1]; Methanol): > 20 mg/mL
solubility ([1]; Toluene): < 1.7 mg/mL
visual solubility at RT ([1]; water, toluene, diisopropyloxide and methyl ethyl ketone): very low soluble
Assay of Fingolimod, % LC ([2]; 2 months at 40° C.): 97.2 % LC
Assay of Fingolimod, % LC ([2]; 2 months at 50° C.): 95.0 % LC
Assay of Fingolimod, % LC ([2]; 3 weeks at 5° C.): 100.3 % LC
Assay of Fingolimod, % LC ([2]; 3 weeks at 40° C.): 99.9 % LC
Assay of Fingolimod, % LC ([2]; 3 weeks at 50° C.): 94.1 % LC
Assay of Fingolimod, % LC ([2]; Initial): 99.9 % LC
barrier function (biotin immunofluorescence) ([3]; 0.001% w/w and 0.01% w/w): reduced the Th2-induced barrier alteration
tissue morphology (histology) ([3]; 0.001% w/w and 0.01% w/w): reduced the Th2-induced barrier alteration
barrier function (biotin immunofluorescence) ([3]; 0.1% and 1%): Increased barrier alteration
tissue morphology (histology) ([3]; 0.1% w/w and 1% w/w): increased fragilization was observed with junction/adhesion loss and disorganization of cell layers
whole blood concentrations (all below the assay LLOQ) [4]: < 0.08 ng/mL
human equivalent dose (HED) ([5]; from minipig NOAEL, minipig 10 kg, human 60 kg): 2.21 mg/kg/day
safety factor over the NOAEL of the 6-week minipig dermal toxicity study ([5]; maximum daily application of 2 g dual active gel): 669 fold
Dermis concentration, μg/g Based on the Mean (n = 5) [6, 11]: 0.6 µg/g
Epidermis concentration, μg/g Based on the Mean (n = 5) [6, 11]: 3.4 µg/g
estimated concentration of active in dermis ([6]; formulation with 1.0% tofacitinib citrate and […] fingolimod hydrochloride): 0.6 µg/mL
estimated concentration of active in epidermis ([6]; formulation with 1.0% tofacitinib citrate and […] fingolimod hydrochloride, epidermis assumed 80 μm): 3.4 µg/g
Amount of Fingolimod recovered, % applied dose, Dermis [6, 12]: 2.59%
Amount of Fingolimod recovered, % applied dose, Epidermis [6, 12]: 1.98%
Amount of Fingolimod recovered, % applied dose, Receptor fluid [6, 12]: ND (not detected (below LOQ of 0.25 ng/mL))
Amount of Fingolimod recovered, ng, Dermis [6, 12]: 49.16 ^ ng
Amount of Fingolimod recovered, ng, Receptor fluid [6, 12]: ND (not detected (below LOQ of 0.25 ng/mL))
Amount of Fingolimod recovered, % applied dose, Dermis [6, 13]: 1.44%
Amount of Fingolimod recovered, % applied dose, Epidermis [6, 13]: 1.59%
Amount of Fingolimod recovered, % applied dose, Receptor fluid [6, 13]: ND (not detected (below LOQ of 0.25 ng/ml))
Amount of Fingolimod recovered, ng, Dermis [6, 13]: 14.82 ng
Amount of Fingolimod recovered, ng, Epidermis [6, 13]: 16.21 ng
Amount of Fingolimod recovered, ng, Receptor fluid [6, 13]: ND (not detected (below LOQ of 0.25 ng/ml))
quantifiability in blood [7]: not quantifiable
solubility ([8]; organic solvents, such as ethanol, DMSO and dimethyl formamide): soluble
solubility ([8]; water): sparingly soluble

fingolimod-phosphate
whole blood concentrations (all below the assay LLOQ) [4]: < 0.08 ng/mL
quantifiability in blood [9]: only quantifiable in the 0.2% fingolimod gel group
affinity for four of the five S1P receptors [10]: 0.3 to 3.1 nM
